In patent US6737383B1, “Herbicidal oxadiazolidines” (priority 1999, dated 2004):

What was measured:
corn = test: Test B pre/postemergence corn; assay type: in vivo, Zea mays
How it was run: (§1)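 Response is a visual 0-to-10 score relative to untreated plants, where 0 means no effect and 10 means complete control, taken twelve to sixteen days after application. Treatments went onto soil at planting and onto foliage of 1- to 4-leaf plants, using a surfactant-containing non-phytotoxic solvent.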

rice = test: Test B flood test rice; assay type: in vivo, Oryza sativa
How it was run: (§2)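 Read-out is a visual response score from 0 (no effect) to 10 (complete control), assigned by comparison with untreated controls. Treatment was applied at the 2-leaf stage, and plants stayed in the greenhouse for twelve to sixteen days before scoring.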

rape = test: Test B pre/postemergence rape; assay type: in vivo, Brassica napus
How it was run: as §1

pigweed = test: Test B pre/postemergence pigweed; assay type: in vivo, Amaranthus retroflexus
How it was run: as §1

blackgrass = test: Test B pre/postemergence blackgrass; assay type: in vivo, Alopecurus myosuroides
How it was run: as §1

purple nutsedge = test: Test B pre/postemergence purple nutsedge; assay type: in vivo, Cyperus rotundus
How it was run: as §1

surinam grass = test: Test B pre/postemergence surinam grass; assay type: in vivo, Brachiaria decumbens
How it was run: as §1

bamyardgrass = test: Test B flood test barnyardgrass; assay type: in vivo, Echinochloa crus-galli
How it was run: as §2

cocklebur = test: Test B pre/postemergence cocklebur; assay type: in vivo, Xanthium strumarium
How it was run: as §1

soybean = test: Test B pre/postemergence soybean; assay type: in vivo, Glycine max
How it was run: as §1

sugar beet = test: Test B pre/postemergence sugar beet; assay type: in vivo, Beta vulgaris
How it was run: as §1

crabgrass = test: Test B pre/postemergence crabgrass; assay type: in vivo, Digitaria sanguinalis
How it was run: as §1

duck salad = test: Test B flood test duck salad; assay type: in vivo, Heteranthera limosa
How it was run: as §2

giant foxtail = test: Test B pre/postemergence giant foxtail; assay type: in vivo, Setaria faberii
How it was run: as §1

wheat = test: Test B pre/postemergence wheat; assay type: in vivo, Triticum aestivum
How it was run: as §1

smallflower flatsedge = test: Test B flood test smallflower flatsedge; assay type: in vivo, Cyperus difformis
How it was run: as §2

[1] = Postemergence, Rate 62 g/ha, scale 0 to 10, 0 is no effect, 10 is complete control
[2] = Postemergence, Rate 250 g/ha, scale 0 to 10, 0 no effect, 10 complete control
[3] = Preemergence, Rate 31 g/ha, visual rating, scale 0 to 10 (0 no effect, 10 complete control)
[4] = Preemergence, Rate 62 g/ha, scale 0 to 10, 0 is no effect, 10 is complete control
[5] = Preemergence, Rate 125 g/ha, scale 0 to 10 (0 no effect, 10 complete control)
[6] = Preemergence, Rate 250 g/ha, scale of 0 to 10 where 0 is no effect and 10 is complete control
[7] = Rate 31 g/ha, Postemergence, scale 0 to 10
[8] = Rate 125 g/ha, Postemergence, scale 0 to 10, 0 no effect, 10 complete control
[9] = Rate 125 g/ha, Postemergence section (flood test species), scale 0 to 10, 0 no effect, 10 complete control
[10] = Rate 500 g/ha, Postemergence section of Table B, 0 to 10 scale (0 no effect, 10 complete control)
[11] = flood test, listed under Postemergence, Rate 250 g/ha, scale 0 to 10, 0 no effect, 10 complete control

COc1ccccc1-n1c(=O)on(C(=O)N(c2ccc(F)cc2F)C(C)C)c1=O [Compound 31]
0: Corn plant response rating (corn; [1]) | Corn plant response rating (corn; [2]) | Corn plant response rating (corn; [3]) | Plant response rating, Corn (corn; [4]) | Plant response rating, Corn (corn; [5]) | Plant response rating, Corn (corn; [6]) | Corn plant response rating (corn; [7]) | Corn plant response rating (corn; [8]) | Rice plant response rating (rice; [1]) | Rice plant response rating (rice; [9]) | Rice plant response rating (rice; [10]) | Rice plant response rating (rice; [11]) | Rape plant response rating (rape; [1]) | Rape plant response rating (rape; [2]) | Rape plant response rating (rape; [3]) | Plant response rating, Rape (rape; [4]) | Plant response rating, Rape (rape; [5]) | Rape plant response rating (rape; [7]) | Rape plant response rating (rape; [8]) | Redroot pigweed plant response rating (pigweed; [1]) | Redroot pigweed plant response rating (pigweed; [2]) | Redroot pigweed plant response rating (pigweed; [3]) | Plant response rating, Redroot pigweed (pigweed; [4]) | Plant response rating, Redroot pigweed (pigweed; [5]) | Redroot pigweed plant response rating (pigweed; [7]) | Redroot pigweed plant response rating (pigweed; [8]) | Blackgrass plant response rating (blackgrass; [1]) | Blackgrass plant response rating (blackgrass; [3]) | Plant response rating, Blackgrass (blackgrass; [4]) | Blackgrass plant response rating (blackgrass; [7]) | Nutsedge plant response rating (purple nutsedge; [1]) | Nutsedge plant response rating (purple nutsedge; [2]) | Nutsedge plant response rating (purple nutsedge; [3]) | Plant response rating, Nutsedge (purple nutsedge; [4]) | Plant response rating, Nutsedge (purple nutsedge; [5]) | Plant response rating, Nutsedge (purple nutsedge; [6]) | Nutsedge plant response rating (purple nutsedge; [7]) | Nutsedge plant response rating (purple nutsedge; [8]) | B. signalgrass plant response rating (surinam grass; [1]) | B. signalgrass plant response rating (surinam grass; [2]) | B. signalgrass plant response rating (surinam grass; [3]) | Plant response rating, B. signalgrass (surinam grass; [4]) | Plant response rating, B. signalgrass (surinam grass; [5]) | B. signalgrass plant response rating (surinam grass; [7]) | B. signalgrass plant response rating (surinam grass; [8]) | Barnyardgrass plant response rating (bamyardgrass; [1]) | Barnyardgrass plant response rating (bamyardgrass; [9]) | Barnyardgrass plant response rating (bamyardgrass; [10]) | Barnyardgrass plant response rating (bamyardgrass; [11]) | Cocklebur plant response rating (cocklebur; [1]) | Cocklebur plant response rating (cocklebur; [3]) | Plant response rating, Cocklebur (cocklebur; [4]) | Plant response rating, Cocklebur (cocklebur; [5]) | Plant response rating, Cocklebur (cocklebur; [6]) | Cocklebur plant response rating (cocklebur; [7]) | Cocklebur plant response rating (cocklebur; [8]) | Soybean plant response rating (soybean; [3]) | Plant response rating, Soybean (soybean; [4]) | Plant response rating, Soybean (soybean; [5]) | Plant response rating, Soybean (soybean; [6]) | Sugarbeets plant response rating (sugar beet; [1]) | Sugarbeets plant response rating (sugar beet; [2]) | Sugarbeets plant response rating (sugar beet; [3]) | Plant response rating, Sugarbeets (sugar beet; [4]) | Plant response rating, Sugarbeets (sugar beet; [5]) | Plant response rating, Sugarbeets (sugar beet; [6]) | Sugarbeets plant response rating (sugar beet; [8]) | Crabgrass plant response rating (crabgrass; [1]) | Crabgrass plant response rating (crabgrass; [7]) | Ducksalad plant response rating (duck salad; [1]) | Ducksalad plant response rating (duck salad; [9]) | Ducksalad plant response rating (duck salad; [10]) | Ducksalad plant response rating (duck salad; [11]) | Giant foxtail plant response rating (giant foxtail; [1]) | Giant foxtail plant response rating (giant foxtail; [7]) | Giant foxtail plant response rating (giant foxtail; [8]) | Wheat plant response rating (wheat; [1]) | Wheat plant response rating (wheat; [2]) | Wheat plant response rating (wheat; [3]) | Plant response rating, Wheat (wheat; [4]) | Plant response rating, Wheat (wheat; [5]) | Plant response rating, Wheat (wheat; [6]) | Wheat plant response rating (wheat; [8]) | S. Flatsedge plant response rating (smallflower flatsedge; [1]) | S. Flatsedge plant response rating (smallflower flatsedge; [9]) | S. Flatsedge plant response rating (smallflower flatsedge; [11])
4: Plant response rating, Rape (rape; [6]) | Blackgrass plant response rating (blackgrass; [8]) | Giant foxtail plant response rating (giant foxtail; [2])
1: Cocklebur plant response rating (cocklebur; [2]) | Soybean plant response rating (soybean; [1]) | Soybean plant response rating (soybean; [2]) | Soybean plant response rating (soybean; [8]) | Giant foxtail plant response rating (giant foxtail; [3])
8: Plant response rating, Giant foxtail (giant foxtail; [5]) | Plant response rating, Giant foxtail (giant foxtail; [6])
3: Plant response rating, Redroot pigweed (pigweed; [6])
2: Plant response rating, Blackgrass (blackgrass; [5]) | Plant response rating, Blackgrass (blackgrass; [6]) | Crabgrass plant response rating (crabgrass; [3]) | Crabgrass plant response rating (crabgrass; [8])
6: Plant response rating, B. signalgrass (surinam grass; [6]) | Plant response rating, Giant foxtail (giant foxtail; [4])
9: Blackgrass plant response rating (blackgrass; [2]) | Crabgrass plant response rating (crabgrass; [2]) | Plant response rating, Crabgrass (crabgrass; [4]) | Plant response rating, Crabgrass (crabgrass; [5]) | Plant response rating, Crabgrass (crabgrass; [6])
